Experimental data: ChEMBL document CHEMBL1201862, “PubChem BioAssay data set” (2004)
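Compound exposure: 48 hours, 5 concentrations, 96-well plates. GI50 marks 50% less growth.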 Activity calls are given as the source filed them. Cut-off read from the data, not from the text of the source: active = GI50 up to about 1.1 µM and inactive = higher.

Legend:
Assay in all cases: NCI anticancer screen, dose series, 48 h
[1] = test system: A498
[2] = test system: Hs-578T
[3] = test system: UACC-62
[4] = test system: A549
[5] = test system: NCI-H460
[6] = test system: RPMI-8226
[7] = test system: U-251
[8] = test system: T47D
[9] = test system: MDA-MB-231
[10] = test system: OVCAR-8
[11] = test system: DU-145
[12] = test system: HOP-62
[13] = test system: K562
[14] = test system: COLO 205
[15] = test system: MOLT-4
[16] = test system: HT-29
[17] = test system: SF-268
[18] = test system: ACHN
[19] = test system: HCT-116
[20] = test system: Malme-3M

| Compound | GI50 [1] | GI50 [2] | GI50 [3] | GI50 [4] | GI50 [5] | GI50 [6] | GI50 [7] | GI50 [8] | GI50 [9] | GI50 [10] | GI50 [11] | GI50 [12] | GI50 [13] | GI50 [14] | GI50 [15] | GI50 [16] | GI50 [17] | GI50 [18] | GI50 [19] | GI50 [20] |
| --- | --- | --- | --- | --- | --- | --- | --- | --- | --- | --- | --- | --- | --- | --- | --- | --- | --- | --- | --- | --- |
| Cn1c(-c2cccs2)cc(-c2ccccc2)c1-c1cccs1 | > 100 µM (inactive) | > 100 µM (inactive) | 97.5 µM (inactive) | 12.3 µM (inactive) | > 100 µM (inactive) | > 100 µM (inactive) | 47.8 µM (inactive) | > 100 µM (inactive) | > 100 µM (inactive) | 65.2 µM (inactive) | > 100 µM (inactive) | 18.2 µM (inactive) | > 100 µM (inactive) | 19.1 µM (inactive) | 66.2 µM (inactive) | 63 µM (inactive) | > 100 µM (inactive) | 39.9 µM (inactive) | 31.2 µM (inactive) |  |
| CCOC(=O)NC(=S)NN(C)C1=NCC(C)(C)S1 | > 100 µM (inactive) | > 100 µM (inactive) | > 100 µM (inactive) | > 100 µM (inactive) | > 100 µM (inactive) | > 100 µM (inactive) | > 100 µM (inactive) | > 100 µM (inactive) | > 100 µM (inactive) |  | > 100 µM (inactive) | > 100 µM (inactive) | > 100 µM (inactive) | > 100 µM (inactive) | > 100 µM (inactive) |  |  | > 100 µM (inactive) | > 100 µM (inactive) |  |
| CC1(C)C/C(=N/O)c2c(nc3ccc4ccccc4c3c2-c2ccc(Cl)cc2)C1 | 19.5 µM (inactive) | 23.3 µM (inactive) | 17.3 µM (inactive) | 19.4 µM (inactive) | 6.14 µM (inactive) | 27.2 µM (inactive) | 11.5 µM (inactive) | 12.1 µM (inactive) | 11.6 µM (inactive) | 12.5 µM (inactive) | 16.5 µM (inactive) | 23.2 µM (inactive) | 19 µM (inactive) | 18.2 µM (inactive) | 18.2 µM (inactive) | 15.4 µM (inactive) | 14.2 µM (inactive) | 6.79 µM (inactive) | 11 µM (inactive) |  |
| CC(C)=CC(=O)c1[nH]c2ccccc2c1CC(=O)NCCc1c[nH]cn1 | > 100 µM (inactive) | > 100 µM (inactive) | > 100 µM (inactive) | > 100 µM (inactive) | > 100 µM (inactive) |  | > 100 µM (inactive) | > 100 µM (inactive) | > 100 µM (inactive) | > 100 µM (inactive) | > 100 µM (inactive) |  | > 100 µM (inactive) | > 100 µM (inactive) | > 100 µM (inactive) | > 100 µM (inactive) | > 100 µM (inactive) | > 100 µM (inactive) | > 100 µM (inactive) | > 100 µM (inactive) |
| COC(=O)c1ccccc1C1CN=NC12Cc1c(ccc3c1CCC3)C2=O (configuration not stated) |  | 71.8 µM (inactive) | 55.1 µM (inactive) | > 100 µM (inactive) | > 100 µM (inactive) | 28.8 µM (inactive) | 41 µM (inactive) | 54 µM (inactive) | 67.8 µM (inactive) | 92.5 µM (inactive) | > 100 µM (inactive) | > 100 µM (inactive) | 39.1 µM (inactive) | 47.8 µM (inactive) | 30.5 µM (inactive) | 43.5 µM (inactive) | > 100 µM (inactive) | 72.4 µM (inactive) | 43.2 µM (inactive) | > 100 µM (inactive) |
| CN1C2CCC1CC(CC(=O)NC(c1ccc(F)cc1)c1ccc(F)cc1)C2 (configuration not stated) | > 100 µM (inactive) | > 100 µM (inactive) |  | > 100 µM (inactive) | > 100 µM (inactive) | 47 µM (inactive) | > 100 µM (inactive) | > 100 µM (inactive) | > 100 µM (inactive) | > 100 µM (inactive) | > 100 µM (inactive) | > 100 µM (inactive) | 37.7 µM (inactive) | 21.5 µM (inactive) | 81.1 µM (inactive) | 38.6 µM (inactive) | 98.4 µM (inactive) | > 100 µM (inactive) | 59.7 µM (inactive) | 27.5 µM (inactive) |
| COc1ccc(CCCCNCc2cccc(CNCCCCc3ccc(OC)cc3)c2)cc1 |  | 1.69 µM (inactive) | 1.85 µM (inactive) | 2.15 µM (inactive) | 2.39 µM (inactive) | 2.67 µM (inactive) | 1.85 µM (inactive) | 2.06 µM (inactive) | 1.87 µM (inactive) | 1.8 µM (inactive) | 1.88 µM (inactive) | 2.19 µM (inactive) | 1.36 µM (inactive) | 2.18 µM (inactive) | 2.18 µM (inactive) | 1.82 µM (inactive) | 1.76 µM (inactive) | 1.83 µM (inactive) | 1.94 µM (inactive) | 2 µM (inactive) |
| Cn1c(=O)c2c(nc(NCCCCl)n2CC(=O)NCCCCl)n(C)c1=O | > 100 µM (inactive) | > 100 µM (inactive) | > 100 µM (inactive) | > 100 µM (inactive) | > 100 µM (inactive) | > 100 µM (inactive) | > 100 µM (inactive) | > 100 µM (inactive) | > 100 µM (inactive) | > 100 µM (inactive) | > 100 µM (inactive) | > 100 µM (inactive) | > 100 µM (inactive) | > 100 µM (inactive) | > 100 µM (inactive) | > 100 µM (inactive) | > 100 µM (inactive) | > 100 µM (inactive) | > 100 µM (inactive) |  |
| CC1CCC(O)(C(C)(C(=O)O)c2ccccc2)CC1 (configuration not stated) | 68.4 µM (inactive) | 74 µM (inactive) | > 100 µM (inactive) | 42.2 µM (inactive) | 42.8 µM (inactive) |  | 64 µM (inactive) | > 100 µM (inactive) | > 100 µM (inactive) | > 100 µM (inactive) | > 100 µM (inactive) | 68.1 µM (inactive) | > 100 µM (inactive) |  | 22 µM (inactive) | > 100 µM (inactive) | > 100 µM (inactive) | > 100 µM (inactive) | > 100 µM (inactive) | 63.4 µM (inactive) |
| CC1OC(OC2C(O[C@H]3CC[C@@]4(C)[C@@H](CC[C@@H]5[C@@H]4CC[C@]4(C)[C@@H]6[C@H](C[C@@H]54)O[C@]4(CC[C@@H](C)CO4)[C@H]6C)C3)OC(CO)C(OC3OC(CO)C(O)C(OC4OCC(O)C(O)C4O)C3OC3OCC(O)C(O)C3O)C2O)C(O)C(O)C1O (some centres not stated) | 1.68 µM (inactive) | 1.03 µM (active) | 0.746 µM (active) | 0.336 µM (active) | 0.625 µM (active) | 0.593 µM (active) | 0.514 µM (active) | 1.8 µM (inactive) | 2.03 µM (inactive) | 1.49 µM (inactive) | 1.32 µM (inactive) | 0.783 µM (active) |  | 0.351 µM (active) | 1.04 µM (active) | 0.495 µM (active) | 1.69 µM (inactive) | 0.942 µM (active) | 0.321 µM (active) | 1.26 µM (inactive) |
| COc1ccc(C2(O)C(S(=O)(=O)c3ccc(C)cc3)=Cc3ccc(OC)cc32)cc1 (configuration not stated) | 44.5 µM (inactive) | 23.6 µM (inactive) |  | > 100 µM (inactive) | > 100 µM (inactive) | > 100 µM (inactive) | 41.2 µM (inactive) | 69.5 µM (inactive) | > 100 µM (inactive) | 44.3 µM (inactive) | 71.3 µM (inactive) | 21.2 µM (inactive) | > 100 µM (inactive) | > 100 µM (inactive) | > 100 µM (inactive) | > 100 µM (inactive) | 31.6 µM (inactive) | 37.4 µM (inactive) | > 100 µM (inactive) |  |
| O=C(Nc1nccs1)NS(=O)(=O)n1cnc2ccccc21 | > 100 µM (inactive) | > 100 µM (inactive) | > 100 µM (inactive) | > 100 µM (inactive) | > 100 µM (inactive) | > 100 µM (inactive) | > 100 µM (inactive) | > 100 µM (inactive) | > 100 µM (inactive) | > 100 µM (inactive) | > 100 µM (inactive) | > 100 µM (inactive) |  | > 100 µM (inactive) | > 100 µM (inactive) | > 100 µM (inactive) | > 100 µM (inactive) | > 100 µM (inactive) | > 100 µM (inactive) | > 100 µM (inactive) |
| NC(=O)C(=CNC(=S)Nc1cccc(C(F)(F)F)c1)C(N)=O | > 100 µM (inactive) | > 100 µM (inactive) | > 100 µM (inactive) | > 100 µM (inactive) | > 100 µM (inactive) | > 100 µM (inactive) | > 100 µM (inactive) | > 100 µM (inactive) | > 100 µM (inactive) | > 100 µM (inactive) | > 100 µM (inactive) | > 100 µM (inactive) | > 100 µM (inactive) | > 100 µM (inactive) | > 100 µM (inactive) | > 100 µM (inactive) | > 100 µM (inactive) | > 100 µM (inactive) | > 100 µM (inactive) |  |
| O=c1[nH]cnc2c(C3OC(CO)C(O)C3O)c[nH]c12 (configuration not stated) |  | > 100 µM (inactive) | > 100 µM (inactive) | > 100 µM (inactive) | > 100 µM (inactive) | > 100 µM (inactive) | > 100 µM (inactive) | > 100 µM (inactive) | > 100 µM (inactive) | > 100 µM (inactive) | > 100 µM (inactive) | > 100 µM (inactive) | > 100 µM (inactive) | > 100 µM (inactive) | > 100 µM (inactive) | > 100 µM (inactive) | > 100 µM (inactive) | > 100 µM (inactive) | > 100 µM (inactive) | > 100 µM (inactive) |
| CCc1cccc2c3c([nH]c12)-c1ccccc1NC(=O)C3 | 19.5 µM (inactive) | 30.7 µM (inactive) | 65.9 µM (inactive) | > 100 µM (inactive) | > 100 µM (inactive) | 67.5 µM (inactive) | > 100 µM (inactive) | 3.66 µM (inactive) | 5.66 µM (inactive) | > 100 µM (inactive) | > 100 µM (inactive) | > 100 µM (inactive) | 19.4 µM (inactive) | > 100 µM (inactive) | 8.89 µM (inactive) | > 100 µM (inactive) | 48.2 µM (inactive) |  |  |  |
